Laboratory results: patent publication US20230117034A1, “PYRAZOLOTRIAZINES” (Bayer Aktiengesellschaft, priority 2019, published 2023)
Read-outs that look alike come from different tables or passages of the source.

How the values were obtained:
CDK9/CycT1 = target: T1, CDK9/CycT1 (Homo sapiens, UniProt P50750); experiment: CDK9/CycT1 high ATP kinase assay (TR-FRET, 2 mM ATP); type: biochemical; details: 2 mM ATP (high ATP); median; read-out: CDK9/CyclinT1, 2 mM ATP (high ATP), IC50 (median)
T1 construct: Recombinant full-length His-tagged human CDK9 and CycT1; purchased Life Technologies PV4131; host or cells: insect cells
T1 sequence (P50750 whole entry): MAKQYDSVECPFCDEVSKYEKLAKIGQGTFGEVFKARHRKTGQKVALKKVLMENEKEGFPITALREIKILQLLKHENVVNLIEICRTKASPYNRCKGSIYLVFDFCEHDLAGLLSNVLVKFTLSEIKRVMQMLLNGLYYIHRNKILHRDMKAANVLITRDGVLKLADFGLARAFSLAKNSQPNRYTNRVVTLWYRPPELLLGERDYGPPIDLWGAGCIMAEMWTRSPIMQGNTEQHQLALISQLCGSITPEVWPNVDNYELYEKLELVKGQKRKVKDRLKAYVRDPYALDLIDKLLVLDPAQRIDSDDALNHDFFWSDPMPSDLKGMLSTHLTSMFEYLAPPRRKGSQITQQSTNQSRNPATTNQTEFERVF
T1 sequence (O60563 whole entry partner): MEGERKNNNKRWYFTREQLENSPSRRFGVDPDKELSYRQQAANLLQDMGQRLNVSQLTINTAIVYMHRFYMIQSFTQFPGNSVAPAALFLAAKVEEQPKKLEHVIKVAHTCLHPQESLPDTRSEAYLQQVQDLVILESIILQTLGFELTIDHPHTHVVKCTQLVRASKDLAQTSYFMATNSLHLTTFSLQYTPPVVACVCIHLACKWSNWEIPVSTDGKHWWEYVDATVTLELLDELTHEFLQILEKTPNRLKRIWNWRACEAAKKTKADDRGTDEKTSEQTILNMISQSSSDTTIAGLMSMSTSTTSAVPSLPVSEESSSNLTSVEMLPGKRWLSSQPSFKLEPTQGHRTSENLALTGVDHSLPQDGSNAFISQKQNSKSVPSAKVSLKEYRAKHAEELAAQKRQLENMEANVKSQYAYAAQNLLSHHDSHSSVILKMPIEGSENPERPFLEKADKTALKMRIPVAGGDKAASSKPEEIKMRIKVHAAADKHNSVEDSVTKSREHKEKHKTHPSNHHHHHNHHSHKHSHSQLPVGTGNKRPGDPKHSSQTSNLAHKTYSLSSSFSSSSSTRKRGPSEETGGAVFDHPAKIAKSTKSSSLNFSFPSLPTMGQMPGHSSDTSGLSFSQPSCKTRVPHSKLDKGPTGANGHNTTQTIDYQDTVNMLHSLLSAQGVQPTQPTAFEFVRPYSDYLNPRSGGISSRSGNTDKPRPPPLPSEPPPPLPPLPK
Outline: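 Full-length His-tagged human CDK9/CycT1 (insect cell, ~0.5 μg/mL) preincubated 15 min at 22 °C with compound in Tris pH 8.0, MgCl2, DTT buffer before reaction with biotinylated peptide substrate at high ATP (2 mM).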

[1] = tested on: MDA-MB-231, human breast cancer cells; experiment: Proliferation assay MDA-MB-231 (crystal violet, 4 days); type: cell-based; details: MDA-MB-231 cells, median, read-out: Prolif-MDA MB-231, IC50-[mol/l] (median)
Outline: (§1)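 Cells seeded at 4,000/well in medium with 10% FCS; after 24 h, compounds added at 0.01-10 µmol/L (0.1% DMSO) for 4 days. Glutaraldehyde-fixed, crystal violet-stained, absorbance at 595 nm normalized to zero-point plate (0%) and untreated cells (100%); IC50 by 4-parameter fit.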

[2] = tested on: CAL-120, human breast adenocarcinoma cells; experiment: Proliferation assay CAL-120 (crystal violet, 4 days); type: cell-based; details: CAL-120 cells, median, read-out: Prolif-CAL-120, IC50-[mol/l] (median)
Outline: as §1

| SMILES | IC50 (CDK9/CycT1) | IC50 [1] | IC50 [2] | IC50 ([1]; Homo sapiens, MDA-MB-231, 96 h) | IC50 ([2]; Homo sapiens, CAL-120, 96 h) |
| --- | --- | --- | --- | --- | --- |
| Brc1cnn2c(NCc3nc4ccccc4[nH]3)nc(N3C[C@H]4CC[C@@H]3CO4)nc12 (single isomer, unassigned; enantiomer 2) [Example 391, N-[(1H-benzimidazol-2-yl)methyl]-8-bromo-2-{[1R or S-(1R*,4R*)]-2-oxa-5-azabicyclo[2.2.2]octan-5-yl}pyrazolo[1,5-a][1,3,5]triazin-4-amine (Enantiomer 2)] | > 20000 nM | 26.1 nM | 8.31 nM | – | – |
| Clc1cc2nc(CNc3nc(N4CC5CCC(C4)N5)nc4c(C5CC5)cnn34)[nH]c2cc1Cl [Example 324, 8-cyclopropyl-2-(3,8-diazabicyclo[3.2.1]octan-3-yl)-N-[(5,6-dichloro-1H-benzimidazol-2-yl)methyl]pyrazolo[1,5-a][1,3,5]triazin-4-amine] | 12300 nM | – | – | 1.56 nM | 1.17 nM |
| CN(CC(C)(C)O)c1nc(NCc2nc3cc(F)c(F)cc3[nH]2)n2ncc(C3CC3)c2n1 [Example 319, 1-[(8-cyclopropyl-4-{[(5,6-difluoro-1H-benzimidazol-2-yl)methyl]amino}pyrazolo[1,5-a][1,3,5]triazin-2-yl)(methyl)amino]-2-methylpropan-2-ol] | > 20000 nM | – | – | 4.76 nM | 2.87 nM |
| CN(CC(C)(C)O)c1nc(NCc2nc3cc(C(F)(F)F)ccc3[nH]2)n2ncc(C3CC3)c2n1 [Example 323, 1-{[8-cyclopropyl-4-({[5-(trifluoromethyl)-1H-benzimidazol-2-yl]methyl}amino)pyrazolo[1,5-a][1,3,5]triazin-2-yl](methyl)amino}-2-methylpropan-2-ol] | > 20000 nM | – | – | 8.76 nM | 5.4 nM |
| CCNc1nc(NCc2nc(-c3ccc(C)cc3)c[nH]2)n2ncc(Br)c2n1 [Example 26, 8-bromo-N^2-ethyl-N^4-{[4-(4-methylphenyl)-1H-imidazol-2-yl]methyl}pyrazolo[1,5-a][1,3,5]triazine-2,4-diamine] | 8740 nM | – | – | – | – |
| Fc1cccc2[nH]c(CNc3nc(N4CCOCC4)nc4c(Cl)cnn34)nc12 [Example 361, 8-chloro-N-[(4-fluoro-1H-benzimidazol-2-yl)methyl]-2-(morpholin-4-yl)pyrazolo[1,5-a][1,3,5]triazin-4-amine] | 13800 nM | – | – | 23.2 nM | 6.73 nM |
| CN(CC(C)(C)O)c1nc(NCc2nc3c(F)c(Cl)ccc3[nH]2)n2ncc(Br)c2n1 [Example 374, 1-[(8-bromo-4-{[(5-chloro-4-fluoro-1H-benzimidazol-2-yl)methyl]amino}pyrazolo[1,5-a][1,3,5]triazin-2-yl)(methyl)amino]-2-methylpropan-2-ol] | 1640 nM | – | – | 3.62 nM | 2.8 nM |
| CN(CC(C)(C)O)c1nc(NCc2nc3c(F)c(F)ccc3[nH]2)n2ncc(Cl)c2n1 [Example 359, 1-[(8-chloro-4-{[(4,5-difluoro-1H-benzimidazol-2-yl)methyl]amino}pyrazolo[1,5-a][1,3,5]triazin-2-yl)(methyl)amino]-2-methylpropan-2-ol] | 7130 nM | – | – | 15.2 nM | 5.69 nM |
| FC(F)(F)Oc1ccc2[nH]c(CNc3nc(N4C[C@H]5CC[C@@H](C4)N5)nc4c(Br)cnn34)nc2c1 [Example 382, 8-bromo-2-[(1R,5S)-3,8-diazabicyclo[3.2.1]octan-3-yl]-N-{[5-(trifluoromethoxy)-1H-benzimidazol-2-yl]methyl}pyrazolo[1,5-a][1,3,5]triazin-4-amine] | > 20000 nM | – | – | 29.3 nM | 12.4 nM |
| CC(C)c1cnn2c(NCc3ncc(-c4ccccc4)[nH]3)nc(N3CCOCC3)nc12 [Example 30, 2-(morpholin-4-yl)-N-[(5-phenyl-1H-imidazol-2-yl)methyl]-8-(propan-2-yl)pyrazolo[1,5-a][1,3,5]triazin-4-amine] | > 20000 nM | – | – | – | – |
| Cc1ccnc2[nH]c(CNc3nc(N4CCN(C)CC4)nc4c(C(C)C)cnn34)nc12 [Example 32, N-[(7-methyl-3H-imidazo[4,5-b]pyridin-2-yl)methyl]-2-(4-methylpiperazin-1-yl)-8-(propan-2-yl)pyrazolo[1,5-a][1,3,5]triazin-4-amine] | > 20000 nM | – | – | – | – |
| Fc1cc2nc(CNc3nc(N4CC5CCC(C4)N5)nc4c(C5CC5)cnn34)[nH]c2cc1F [Example 325, 8-cyclopropyl-2-(3,8-diazabicyclo[3.2.1]octan-3-yl)-N-[(5,6-difluoro-1H-benzimidazol-2-yl)methyl]pyrazolo[1,5-a][1,5]triazin-4-amine] | > 20000 nM | – | – | 3.22 nM | 1.48 nM |
| CN(CC(C)(C)O)c1nc(NCc2nc3cc(F)c(F)cc3[nH]2)n2ncc(Br)c2n1 [Example 347] | 10400 nM | – | – | 4.35 nM | 2.47 nM |
| Cc1cc2nc(CNc3nc(N(C)CC(C)(C)O)nc4c(C5CC5)cnn34)[nH]c2cc1C [Example 321, 1-[(8-cyclopropyl-4-{[(5,6-dimethyl-1H-benzimidazol-2-yl)methyl]amino}pyrazolo[1,5-a][1,3,5]triazin-2-yl)(methyl)amino]-2-methylpropan-2-ol] | 7300 nM | – | – | 2.45 nM | 2.35 nM |
| C[C@H]1CN(C)CCN1c1nc(NCc2nc3c(F)cccc3[nH]2)n2ncc(C(F)(F)F)c2n1 [Example 388, 2-[(2S)-2,4-dimethylpiperazin-1-yl]-N-[(4-fluoro-1H-benzimidazol-2-yl)methyl]-8-(trifluoromethyl)pyrazolo[1,5-a][1,3,5]triazin-4-amine] | > 20000 nM | – | – | 30.2 nM | 22.5 nM |
| Fc1cc2nc(CNc3nc(N4CC5CCC(C4)N5)nc4c(Br)cnn34)[nH]c2cc1F [Example 355, 8-bromo-2-(3,8-diazabicyclo[3.2.1]octan-3-yl)-N-[(5,6-difluoro-1H-benzimidazol-2-yl)methyl]pyrazolo[1,5-a][1,3,5]triazin-4-amine] | > 20000 nM | – | – | 3.2 nM | 2.2 nM |
| CC[C@@H](CO)Nc1nc(NCc2nc3ccccc3[nH]2)n2ncc(Br)c2n1 [Example 367, (2S)-2-[(4-{[(1H-benzimidazol-2-yl)methyl]amino}-8-bromopyrazolo[1,5-a][1,3,5]triazin-2-yl)amino]butan-1-ol] | 17600 nM | – | – | 84.1 nM | 31.4 nM |
| Brc1cnn2c(NCc3nc4ccccc4[nH]3)nc(N3CC4CCC3CO4)nc12 (stereo not shown) [Example 352, N-[(1H-benzimidazol-2-yl)methyl]-8-bromo-2-(2-oxa-5-azabicyclo[2.2.2]octan-5-yl)pyrazolo[1,5-a][1,3,5]triazin-4-amine] | 16800 nM | – | – | 18.8 nM | 8.05 nM |
| CN(CC(C)(C)O)c1nc(NCc2nc3c(F)cccc3[nH]2)n2ncc(Cl)c2n1 [Example 366, 1-[(8-chloro-4-{[(4-fluoro-1H-benzimidazol-2-yl)methyl]amino}pyrazolo[1,5-a][1,3,5]triazin-2-yl)(methyl)amino]-2-methylpropan-2-ol] | > 20000 nM | – | – | 57.1 nM | 31.3 nM |
| Cc1cc2nc(CNc3nc(N4CC5CCC(C4)N5)nc4c(Br)cnn34)[nH]c2cc1C [Example 353, 8-bromo-2-(3,8-diazabicyclo[3.2.1]octan-3-yl)-N-[(5,6-dimethyl-1H-benzimidazol-2-yl)methyl]pyrazolo[1,5-a][1,3,5]triazin-4-amine] | 12700 nM | – | – | 1.81 nM | 1.41 nM |
| CN(c1nc(NCc2nc3ccccc3[nH]2)n2ncc(Br)c2n1)[C@H]1C[C@H](O)C1 [Example 365, trans-3-[(4-{[(1H-benzimidazol-2-yl)methyl]amino}-8-bromopyrazolo[1,5-a][1,3,5]triazin-2-yl)(methyl)amino]cyclobutan-1-ol] | > 20000 nM | – | – | 118 nM | 70.2 nM |
| Fc1cc2nc(CNc3nc(N4CCOCC4)nc4c(Br)cnn34)[nH]c2cc1Cl [Example 336, 8-bromo-N-[(6-chloro-5-fluoro-1H-benzimidazol-2-yl)methyl]-2-(morpholin-4-yl)pyrazolo[1,5-a][1,3,5]triazin-4-amine] | – | – | – | 4.27 nM | 3.21 nM |
| Fc1ccc2[nH]c(CNc3nc(N4CC5CCC(C4)N5)nc4c(Cl)cnn34)nc2c1F.O=CO [Example 360, formic acid 8-chloro-2-(3,8-diazabicyclo[3.2.1]octan-3-yl)-N-[(4,5-difluoro-1H-benzimidazol-2-yl)methyl]pyrazolo[1,5-a][1,3,5]triazin-4-amine] | – | – | – | 5.67 nM | 2.24 nM |
| Cc1[nH]c(CNc2nc(N3CCOCC3)nc3c(Br)cnn23)nc1-c1ccccc1 [Example 27, 8-bromo-N-[(5-methyl-4-phenyl-1H-imidazol-2-yl)methyl]-2-(morpholin-4-yl)pyrazolo[1,5-a][1,3,5]triazin-4-amine] | 14700 nM | – | – | – | – |
| CN(c1nc(NCc2nc3ccccc3[nH]2)n2ncc(Br)c2n1)[C@H]1C[C@@H](O)C1 [Example 364, cis-3-[(4-{[(1H-benzimidazol-2-yl)methyl]amino}-8-bromopyrazolo[1,5-a][1,3,5]triazin-2-yl)(methyl)amino]cyclobutan-1-ol] | > 20000 nM | – | – | 41.3 nM | – |
